The NIST ThermoML archive (doi:10.1016/j.jct.2006.03.018)

How the values were obtained:
[1] = xn = mol fraction of the nth substance listed; conditions: 101 kPa, Liquid
[2] = refractive index (Na D-line) (dimensionless); xn = mol fraction of the nth substance listed; conditions: 101 kPa, Liquid

COc1ccccc1 [anisole] + CCCCO
Conditions	mass density, 298.15 K [kg/m3]	mass density, 303.15 K [kg/m3]	mass density, 308.15 K [kg/m3]	refractive index, 298.15 K	refractive index, 303.15 K	refractive index, 308.15 K	speed of sound, 298.15 K [m/s]	viscosity, 298.15 K [mPa·s]	viscosity, 303.15 K [mPa·s]	viscosity, 308.15 K [mPa·s]
[1], x1 = 0.1064	824.95	820.92	816.89	–	–	–	1258	2.015	1.778	1.576
[1], x1 = 0.1923	841.43	837.28	833.12	–	–	–	1276	1.702	1.511	1.352
[1], x1 = 0.2988	861.78	857.49	853.21	–	–	–	1298	1.409	1.261	1.136
[1], x1 = 0.3972	880.06	875.69	871.31	–	–	–	1314	1.285	1.145	1.051
[1], x1 = 0.493	897.25	892.77	888.3	–	–	–	1334	1.129	1.041	0.939
[1], x1 = 0.5968	922.83	918.26	913.66	–	–	–	1347	1.063	0.968	0.886
[1], x1 = 0.7834	930.28	925.7	921.11	–	–	–	1364	0.985	0.907	0.844
[1], x1 = 0.8332	957.86	953.17	948.47	–	–	–	1376	0.968	0.893	0.824
[1], x1 = 0.892	969.05	964.35	959.64	–	–	–	1390	0.962	0.884	0.822
[1], x1 = 1	989.15	984.45	979.73	–	–	–	1412	0.988	0.913	0.854
[2], x1 = 0.1064	–	–	–	1.4108	1.4069	1.4031	–	–	–	–
[2], x1 = 0.1923	–	–	–	1.4221	1.4197	1.4173	–	–	–	–
[2], x1 = 0.2988	–	–	–	1.4354	1.4332	1.4307	–	–	–	–
[2], x1 = 0.3972	–	–	–	1.4473	1.4449	1.4421	–	–	–	–
[2], x1 = 0.493	–	–	–	1.4586	1.4563	1.4535	–	–	–	–
[2], x1 = 0.5968	–	–	–	1.4719	1.4679	1.4651	–	–	–	–
[2], x1 = 0.7834	–	–	–	1.4848	1.4822	1.4795	–	–	–	–
[2], x1 = 0.8332	–	–	–	1.4911	1.4888	1.4858	–	–	–	–
[2], x1 = 0.892	–	–	–	1.5027	1.5005	1.4966	–	–	–	–
[2], x1 = 1	–	–	–	1.5137	1.5113	1.5088	–	–	–	–

CCCCO [butan-1-ol] + COc1ccccc1
x2 = 0
Conditions	mass density, 298.15 K [kg/m3]	mass density, 303.15 K [kg/m3]	mass density, 308.15 K [kg/m3]	refractive index, 298.15 K	refractive index, 303.15 K	refractive index, 308.15 K	speed of sound, 298.15 K [m/s]	viscosity, 298.15 K [mPa·s]	viscosity, 303.15 K [mPa·s]	viscosity, 308.15 K [mPa·s]
[1]	806.12	802.28	798.41	–	–	–	1246	2.585	2.284	1.981
[2]	–	–	–	1.3968	1.3944	1.3923	–	–	–	–

COc1ccccc1 [anisole] + CCCCCO
Conditions	mass density, 298.15 K [kg/m3]	mass density, 303.15 K [kg/m3]	mass density, 308.15 K [kg/m3]	refractive index, 298.15 K	refractive index, 303.15 K	refractive index, 308.15 K	speed of sound, 298.15 K [m/s]	viscosity, 298.15 K [mPa·s]	viscosity, 303.15 K [mPa·s]	viscosity, 308.15 K [mPa·s]
[1], x1 = 0.1013	828.63	824.77	820.91	–	–	–	1298	2.677	2.332	2.051
[1], x1 = 0.2032	846.67	842.67	838.66	–	–	–	1311	2.005	1.773	1.575
[1], x1 = 0.3022	864.26	860.11	855.96	–	–	–	1324	1.743	1.545	1.384
[1], x1 = 0.3946	880.67	876.42	872.17	–	–	–	1336	1.513	1.359	1.219
[1], x1 = 0.4912	897.83	893.47	889.11	–	–	–	1350	1.318	1.195	1.091
[1], x1 = 0.5984	916.91	912.45	907.98	–	–	–	1361	1.18	1.072	0.979
[1], x1 = 0.6976	934.59	930.04	925.49	–	–	–	1374	1.092	0.999	0.916
[1], x1 = 0.7965	952.41	947.78	943.15	–	–	–	1388	1.004	0.927	0.853
[1], x1 = 0.8974	970.59	965.9	961.2	–	–	–	1395	0.955	0.88	0.919
[1], x1 = 1	989.15	984.45	979.73	–	–	–	1412	0.988	0.913	0.854
[2], x1 = 0.1013	–	–	–	1.4091	1.4066	1.404	–	–	–	–
[2], x1 = 0.2032	–	–	–	1.4166	1.4138	1.4112	–	–	–	–
[2], x1 = 0.3022	–	–	–	1.4237	1.4219	1.4201	–	–	–	–
[2], x1 = 0.3946	–	–	–	1.4333	1.4302	1.4272	–	–	–	–
[2], x1 = 0.4912	–	–	–	1.4429	1.4401	1.4379	–	–	–	–
[2], x1 = 0.5984	–	–	–	1.4561	1.4533	1.451	–	–	–	–
[2], x1 = 0.6976	–	–	–	1.4667	1.4642	1.4616	–	–	–	–
[2], x1 = 0.7965	–	–	–	1.4807	1.4778	1.4747	–	–	–	–
[2], x1 = 0.8974	–	–	–	1.4963	1.4934	1.491	–	–	–	–
[2], x1 = 1	–	–	–	1.5137	1.5113	1.5088	–	–	–	–

COc1ccccc1 [anisole] + CCCO
Conditions	mass density, 298.15 K [kg/m3]	mass density, 303.15 K [kg/m3]	mass density, 308.15 K [kg/m3]	refractive index, 298.15 K	refractive index, 303.15 K	refractive index, 308.15 K	speed of sound, 298.15 K [m/s]	viscosity, 298.15 K [mPa·s]	viscosity, 303.15 K [mPa·s]	viscosity, 308.15 K [mPa·s]
[1], x1 = 0.1036	816.88	812.68	808.48	–	–	–	1223	1.564	1.392	1.242
[1], x1 = 0.2003	835.8	831.49	827.18	–	–	–	1232	1.352	1.198	1.078
[1], x1 = 0.3055	856.97	852.54	848.11	–	–	–	1258	1.166	1.094	0.961
[1], x1 = 0.4053	876.55	872.04	867.53	–	–	–	1278	1.069	0.98	0.879
[1], x1 = 0.5096	897.74	893.14	888.55	–	–	–	1297	1.003	0.921	0.838
[1], x1 = 0.6015	915.39	910.74	906.1	–	–	–	1314	0.989	0.903	0.821
[1], x1 = 0.7071	934.31	929.62	924.94	–	–	–	1330	0.947	0.859	0.802
[1], x1 = 0.8023	952.23	947.51	942.78	–	–	–	1350	0.943	0.861	0.795
[1], x1 = 0.8939	970.23	965.5	960.74	–	–	–	1370	0.932	0.869	0.792
[1], x1 = 1	989.15	984.45	979.73	–	–	–	1412	0.988	0.913	0.854
[2], x1 = 0.1036	–	–	–	1.4013	1.3989	1.3966	–	–	–	–
[2], x1 = 0.2003	–	–	–	1.4176	1.4153	1.4129	–	–	–	–
[2], x1 = 0.3055	–	–	–	1.4284	1.4314	1.4287	–	–	–	–
[2], x1 = 0.4053	–	–	–	1.4459	1.4458	1.4426	–	–	–	–
[2], x1 = 0.5096	–	–	–	1.461	1.4578	1.4542	–	–	–	–
[2], x1 = 0.6015	–	–	–	1.4737	1.4704	1.4673	–	–	–	–
[2], x1 = 0.7071	–	–	–	1.4864	1.482	1.4793	–	–	–	–
[2], x1 = 0.8023	–	–	–	1.4955	1.493	1.4897	–	–	–	–
[2], x1 = 0.8939	–	–	–	1.5046	1.5014	1.499	–	–	–	–
[2], x1 = 1	–	–	–	1.5137	1.5113	1.5088	–	–	–	–

CCO [ethanol] + COc1ccccc1
x2 = 0
Conditions	mass density, 298.15 K [kg/m3]	mass density, 303.15 K [kg/m3]	mass density, 308.15 K [kg/m3]	refractive index, 298.15 K	refractive index, 303.15 K	refractive index, 308.15 K	speed of sound, 298.15 K [m/s]	viscosity, 298.15 K [mPa·s]	viscosity, 303.15 K [mPa·s]	viscosity, 308.15 K [mPa·s]
[1]	785.91	781.6	777.26	–	–	–	1161	1.073	0.971	0.889
[2]	–	–	–	1.3591	1.3572	1.355	–	–	–	–
